Results taken from US11013730B1, “Composition comprising selenazol or thiazalone derivatives and silver and method of treatment therewith” (Thioredoxin Systems AB, priority 2014, dated 2021).
Values after ≈ are worked out from the molar mass of the structure shown. Values joined by “and” are separate entries in the source; they are usually repeats but may differ in a detail not shown here. Equal values may be shown once. Read-outs that look alike come from different tables or passages of the source.

Tests used:
[1] = tested on: Mycobacterium tuberculosis; assay: Sensitivity of Mycobacterium tuberculosis to ebselen, radiometric BACTEC 460 system; type: cell-based; conditions: medium with 5 g/l albumin, estimate
Mammalian TrxR = molecular target: T1, Mammalian TrxR (Homo sapiens, UniProt Q16881); conditions: from ref (3) / (32); cited from earlier work
T1 sequence (Q16881 151-649 limits assumed): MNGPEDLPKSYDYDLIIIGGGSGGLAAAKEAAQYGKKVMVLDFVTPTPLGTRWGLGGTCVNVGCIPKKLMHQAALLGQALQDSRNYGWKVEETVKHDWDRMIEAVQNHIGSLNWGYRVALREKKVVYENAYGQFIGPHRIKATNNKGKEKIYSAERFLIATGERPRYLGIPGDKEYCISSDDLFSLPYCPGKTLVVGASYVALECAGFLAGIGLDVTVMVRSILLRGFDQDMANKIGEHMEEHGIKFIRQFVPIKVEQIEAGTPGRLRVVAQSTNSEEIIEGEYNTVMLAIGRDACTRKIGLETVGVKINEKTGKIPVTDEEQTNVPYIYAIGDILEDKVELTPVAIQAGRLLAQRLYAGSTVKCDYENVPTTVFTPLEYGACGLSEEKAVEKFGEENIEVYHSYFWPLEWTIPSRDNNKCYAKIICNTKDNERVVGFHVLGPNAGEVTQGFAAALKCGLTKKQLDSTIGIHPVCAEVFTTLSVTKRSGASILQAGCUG

Staphylococcus aureus = conditions: cited from earlier work
Helicobacter pylori = assay: Bactericidal effects on Helicobacter pylori; type: cell-based; conditions: read-out: minimal bactericidal concentration (MBC)
Excerpt: The inhibition of ebselen on H. pylori was therefore investigated. […] Taken together, our results strongly support that the inhibition of ebselen on these glutathione deficient bacteria is due to the oxidization of thioredoxin system by ebselen.

GSH = GSH amount in bacterial cell lysates; conditions: wt E. coli, 5 μM silver and 10 μM ebselen, 1 h
Method: To analyze the TrxR activity and GSH amount in the bacteria, the cells were harvested by centrifugation and washed with PBS, then the cells were resuspended in TE buffer (50 mM Tris-HCl, pH 7.5, 1 mM EDTA) containing protease inhibitor cocktail and lysed by sonication. The cell lysates were obtained by centrifugation at 13,000 rpm for 30 min and the protein concentration were measured by Lowry protein assay (Bio-Rad DC).
To measure GSH levels, 10 μg of the cell lysates was added in the solution containing 50 nM GR, 50 mM Tris-HCl, pH 7.5, 200 μM NADPH, 1 mM EDTA, 1 mM DTNB. The absorbance at 412 nm was measured for 5 min.
GSH amounts were measured as the description in material and methods.

E. coli gshA^− strain = conditions: with 5 μM silver, 1 h
Method: (§1) The absorbance at 600 nm were measured to detect the growth of the bacteria.
(§2) E. coli strains were cultured until the OD600 got around to 0.4, and then the bacteria were treated with 5 μM silver and different concentrations of ebselen (2, 5, 10 μM).

HeLa cells = conditions: 24 h
Method: RAW 264.7, J774, HEK 293T, Hela cells were cultured in DMEM medium (GIBCO) supplemented with 10% FCS, 100 units/ml penicillin, and 100 μg/ml streptomycin at 37° C. in a 5% CO2 incubator. The cells were seeded in 96 micro-well plates and grown till 70-80% confluency. The cells were treated with different combination of ebselen and silver for 24 h. The cell toxicity was detected by MTT assay (15). Data are means±SD of three independent experiments.
To check whether there are synergistic toxic effects on mammalian cells, the toxicity of combination of ebselen and silver towards HeLa cells was studied. […] Nearly confluent HeLa cells were treated with combination of indicating concentration of ebselen and its analogues and silver for 24 h. then the cell toxicity was detected by MTT assay.

E. coli = type: cell-based, Escherichia coli; conditions: 2, 4, 8 μM, LB medium, 16 h
H. pylori strains = assay: MIC against H. pylori strains; conditions: Helicobacter pylori
Gor DHB4 E. coli = assay: Inhibition of bacterial growth (MIC), Gor DHB4 E. coli; conditions: Escherichia coli, DHB4E.COLI, read-out: MIC for Gor DHB4 E. coli
Excerpt: (§3) Here E. coli DHB4 strains wt, gshA^−, gor^−, oxyR^− were used as the model to test the antibiotics activity of these ebselen derivatives.

Bacillus subtilis = assay: Growth inhibition of Bacillus subtilis by ebselen and silver, A600
Method: Bacterial growth was determined as A600 after 16 h at 37° C.

gshA^− DHB4 E. coli = assay: Inhibition of bacterial growth (MIC), gshA^− DHB4 E. coli
Excerpt: as §3

HEK 293T cells = HEK 293T cells growth (cytotoxicity); type: cell-based; conditions: Homo sapiens, HEK-293T; read-out: IG50 for HEK 293T
[2] = Glutathione peroxidase (GPx) activity of the compounds; type: biochemical; conditions: relative; EbSe 6 = 1
E. coli Trx-(SH)2 = E. coli Trx-(SH)2 (Escherichia coli, UniProt P0AA25); conditions: fluorescence spectroscopy, ref (32); cited from earlier work
Chain of E. coli Trx-(SH)2 (P0AA25 whole entry): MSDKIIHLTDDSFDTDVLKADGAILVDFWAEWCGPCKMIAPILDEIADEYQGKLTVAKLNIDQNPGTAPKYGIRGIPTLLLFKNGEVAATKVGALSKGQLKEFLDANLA

wild type (wt) E. coli = assay: Growth of wild type E. coli culture treated 1 h with silver and ebselen; conditions: with 5 μM silver
Method: as §1, §2

wild type DHB4 E. coli = assay: Inhibition of bacterial growth (MIC), wild type DHB4 E. coli; conditions: Escherichia coli, DHB4E.COLI, read-out: MIC for wild type DHB4 E. coli
Excerpt: as §3

E. coli NHHJ = conditions: cited from earlier work
E. coli TrxR [3] = molecular target: T2, E. coli TrxR (Escherichia coli, UniProt P0A9P4); assay: TrxR activity in bacterial cell lysates, insulin coupled reduction endpoint assay; type: cell-based; conditions: 5 μM silver and 2, 5, 10 μM ebselen, 1 h
T2 sequence (P0A9P4 whole entry): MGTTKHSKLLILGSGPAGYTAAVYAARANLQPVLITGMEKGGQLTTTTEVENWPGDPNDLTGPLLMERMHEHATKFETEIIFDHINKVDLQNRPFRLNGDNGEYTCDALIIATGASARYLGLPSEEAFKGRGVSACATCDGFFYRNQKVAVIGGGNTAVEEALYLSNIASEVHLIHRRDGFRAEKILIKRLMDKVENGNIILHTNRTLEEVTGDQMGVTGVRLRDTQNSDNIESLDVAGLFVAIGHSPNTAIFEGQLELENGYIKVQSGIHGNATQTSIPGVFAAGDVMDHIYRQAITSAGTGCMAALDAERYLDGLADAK
Method: The reaction continued for 30 min. […] A sample without E. coli Trx was used as the background control.

E. coli TrxR [4] = molecular target: T2, E. coli TrxR; assay: E. coli TrxR inhibition, thioredoxin dependent DTNB reduction assay; type: biochemical; conditions: Lineweaver-Burk plots, reduction of DTNB; listed as ebselen; read-out: Ki (dissociation constant of inhibitor-TrxR complex), competitive inhibition of E. coli TrxR
E. coli TrxR [5] = molecular target: T2, E. coli TrxR; assay: as above; type: biochemical
Method: Further we examined the effect of ebselen in the reduction of disulfide by E. coli Trx and TrxR using both DTNB and insulin as substrates.
All the benzisoselenazol-3(2H)-one and bisbenzisoselenazol-3(2H)-one derivatives were tested as potential E. coli TrxR inhibitors by standard DTNB assay. […] The reactions were started by adding 1 mM DTNB to the mixture of 100 nM TrxR, 2 μM Trx, 240 μM NADPH, and different concentration of inhibitor (1-40 μM). […] The reactions were started by adding 6 nM TrxR at room temperature. Inhibition constants (Ki) for all the compounds were measured from Dixon plot, which plots 1/v versus […], I=Inhibitor concentration).

recombinant rat TrxR = molecular target: T3, recombinant rat TrxR (Rattus norvegicus, UniProt O89049); assay: Inhibition of mammalian (recombinant rat) TrxR
T3 sequence (O89049 1-499): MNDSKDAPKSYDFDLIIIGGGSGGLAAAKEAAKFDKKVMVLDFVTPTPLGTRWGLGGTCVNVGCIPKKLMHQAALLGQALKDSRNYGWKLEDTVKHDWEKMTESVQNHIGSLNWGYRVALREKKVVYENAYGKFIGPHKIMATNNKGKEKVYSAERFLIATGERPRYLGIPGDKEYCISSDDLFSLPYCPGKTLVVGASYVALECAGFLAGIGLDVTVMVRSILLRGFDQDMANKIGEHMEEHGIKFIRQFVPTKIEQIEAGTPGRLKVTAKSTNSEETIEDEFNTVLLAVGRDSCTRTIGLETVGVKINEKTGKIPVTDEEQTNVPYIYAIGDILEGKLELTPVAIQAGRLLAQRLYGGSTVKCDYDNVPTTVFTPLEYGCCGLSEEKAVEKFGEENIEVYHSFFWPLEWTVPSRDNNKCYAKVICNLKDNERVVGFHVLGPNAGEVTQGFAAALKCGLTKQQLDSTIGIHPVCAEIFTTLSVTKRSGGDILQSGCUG

[6] = molecular target: E. coli ribonucleotide reductase (Escherichia coli, UniProt P00452); assay: Inhibition of E. coli ribonucleotide reductase; type: biochemical; conditions: data not shown
Chain of E. coli ribonucleotide reductase (P00452 whole entry): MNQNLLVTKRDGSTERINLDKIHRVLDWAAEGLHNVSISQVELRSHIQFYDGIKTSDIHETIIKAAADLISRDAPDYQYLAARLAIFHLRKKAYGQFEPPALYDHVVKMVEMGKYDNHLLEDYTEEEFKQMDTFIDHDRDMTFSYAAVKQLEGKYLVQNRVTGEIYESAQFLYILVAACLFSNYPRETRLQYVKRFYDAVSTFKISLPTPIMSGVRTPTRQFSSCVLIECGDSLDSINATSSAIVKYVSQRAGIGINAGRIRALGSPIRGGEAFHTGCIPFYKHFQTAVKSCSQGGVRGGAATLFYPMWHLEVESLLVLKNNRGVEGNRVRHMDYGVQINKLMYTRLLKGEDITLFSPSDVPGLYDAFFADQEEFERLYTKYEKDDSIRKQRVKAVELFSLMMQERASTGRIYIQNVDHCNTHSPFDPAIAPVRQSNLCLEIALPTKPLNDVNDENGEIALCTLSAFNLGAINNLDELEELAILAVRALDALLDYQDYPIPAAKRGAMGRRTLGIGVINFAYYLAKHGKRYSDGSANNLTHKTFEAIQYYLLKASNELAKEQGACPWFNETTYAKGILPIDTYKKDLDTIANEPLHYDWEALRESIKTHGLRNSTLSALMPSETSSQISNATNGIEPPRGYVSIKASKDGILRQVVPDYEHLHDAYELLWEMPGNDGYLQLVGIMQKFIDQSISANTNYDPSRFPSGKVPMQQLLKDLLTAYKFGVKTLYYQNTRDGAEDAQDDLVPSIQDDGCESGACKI

In the case of `O=c1c2ccccc2[se]n1-c1ccccc1` [EbSe 6, 2-phenyl-1,2-benzisoselenazol-3(2H)-one], the MIC [1] is given as less than 20 µg/mL, the Km (Mammalian TrxR) is given as 2.5 µM and the “kcat, mammalian TrxR” value (Mammalian TrxR) is given as 9.8 s⁻¹. The concentration inhibiting growth (Staphylococcus aureus; Staphylococcus aureus 209P) was 0.20 µg/mL, the “MIC for 90% of S. aureus strains” value (Staphylococcus aureus) was 1.56 μg per ml and the “mode of action on S. aureus” value (Staphylococcus aureus) was “bacteriocidal”. For the same compound, the “sensitivity of Staphyloccus aureus relative to E. coli” value (Staphylococcus aureus) was 100 fold, the concentration inhibiting growth (Staphylococcus aureus; methicillin resistant Staphylococcus aureus) was 0.20 μg per ml and the MBC (Helicobacter pylori; macrolide resistant strains) was 12.5 µg/mL (≈ 45.6 µM). The MBC (Helicobacter pylori; two macrolide sensitive strains) was 3.12 µg/mL (≈ 11.4 µM), the “GSH amount in cell lysate” value (GSH) was “obviously lower than the others” and the “ebselen concentration that inhibited growth” value (E. coli gshA^− strain) was 2 µM. The “synergistic toxicity with silver” value (HeLa cells; 5 μM) was “did not show synergistic of toxicity”, the “synergistic toxicity with silver” value (HeLa cells; 20 μM, silver at high concentration) was “enhanced the toxicity of silver” and the “effect of ebselen alone on bacterial growth” value (E. coli) was “did not show the inhibition effects”. For the same compound, the MIC (H. pylori strains) was 3.13 µg/mL (≈ 11.4 µM), the MIC (H. pylori strains; NCTC11637) was 3.13 µg/mL (≈ 11.4 µM) and the MIC (Gor DHB4 E. coli) was 15 µM (≈ 4.11 µg/mL). The “effect on growth of B. subtilis” value (Bacillus subtilis; ebselen at 2 μM alone) was “did not inhibit the growth”, the “effect on antibacterial activity of silver” value (Bacillus subtilis; ebselen at 2 μM with silver) was “strongly helped the antibacterial activity of silver” and the “sensitivity of gshA^− / gor^− strains compared with wild type” value (gshA^− DHB4 E. coli; E. coli strains wt, gshA^−, gor^−) was “Wild type bacteria were more resistant than gor^− and gshA^− strains”. For the same compound, the MIC (gshA^− DHB4 E. coli; Escherichia coli, read-out: MIC for gshA^− DHB4 E. coli) was 26 µM (≈ 7.13 µg/mL), the IC50 (HEK 293T cells) was 120000 nM and the “Relative GPx activity” value [2] was 1. The “second-order rate constant of direct reduction by reduced E. coli Trx” value (E. coli Trx-(SH)2) was 2e+07 M⁻¹ s⁻¹, the “ebselen concentration that inhibited growth” value (wild type (wt) E. coli) was 10 µM and the MIC (wild type DHB4 E. coli) was 40 µM (≈ 11 µg/mL). The “concentration required to inhibit growth” value (E. coli NHHJ) was “up to 50 μg per ml”, the “TrxR activity in bacterial lysates” value (E. coli TrxR [3]) was “not affected” and the Ki (E. coli TrxR [4]) was 150 nM and 140 nM. The “inhibition of E. coli TrxR (in words)” value (E. coli TrxR [5]) was “strongly inhibited”, the IC50 (E. coli TrxR [5]; DTNB assay, 100 nM TrxR, 2 μM Trx, 240 μM NADPH, 1 mM DTNB, read-out: IC50 for E. coli TrxR) was 6000 nM and the Ki (E. coli TrxR [5]; Dixon plot, 6 nM TrxR, Trx 1, 2 or 4 μM, read-out: Ki for E. coli TrxR) was 300 nM. For the same compound, the IC50 (recombinant rat TrxR) was greater than 10000 nM, the “inhibition of mammalian TrxR (in words)” value (recombinant rat TrxR) was “no inhibitory activity” and the “inhibition of E. coli ribonucleotide reductase” value [6] was “effective direct inhibitor”.
